What all share (experiment): DTP human tumour cell line panel, 48 h
The subject of assay [1] is SW-620 colon.
The test system of assay [2] is HOP-62 NSCLC.
Assay [3] has as its system A498 renal.
In assay [4] the test system is SK-MEL-28 melanoma.
The subject of assay [5] is SK-MEL-5 melanoma.
For assay [6], the system named is RXF 393 renal.
The subject of assay [7] is K-562 leukemia.
Assay [8] concerns M14 melanoma.
Assay [9] concerns DU-145 prostate.
The subject of assay [10] is 786-0 renal.
In assay [11] the test system is OVCAR-4 ovarian.

The TGI is the concentration at which net growth stops. Read a high TGI as lower sensitivity of the cells. By GI50 is commonly meant the concentration giving 50% growth inhibition.

Structures are written as SMILES.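 Cells were grown in 96-well plates and exposed to each compound for 48 hours at five concentrations; endpoints were interpolated linearly between bracketing concentrations, or set to the highest concentration if not reached. GI50 marks 50% less growth. TGI denotes the concentration required for complete inhibition of growth.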 Where a SMILES comes first, the peptide text is derived from it. The star is where a group is joined. Fmoc = O=C(OCC1c2ccccc2-c2ccccc21)*; Boc = CC(C)(C)OC(=O)*

As to `CCOC(=O)Cc1nc2sc(S(N)(=O)=O)nn2c1Br`, the TGI in [1] is 48 µM; in [2], greater than 100 µM; in [3] it was 65.6 µM; in [4], 96.2 µM; in [5], 42.4 µM; in assay [6], 69.8 µM. Besides, the TGI is greater than 100 µM in assay [7], 33.8 µM in assay [8], greater than 100 µM in [9] and 52.1 µM in [10].
Consider `O=C(CCCCCCC(=O)Nc1cccnc1)NO`, for which the total growth inhibition concentration (TGI) in [1] was greater than 100 µM; in [2], greater than 100 µM; in assay [3], greater than 100 µM; in [4], greater than 80.3 µM; in assay [11], greater than 100 µM; in [6], 31 µM. In addition, the TGI is greater than 100 µM in [7], greater than 56 µM in assay [8], greater than 31.5 µM in assay [9] and greater than 100 µM in assay [10].
Take `O=C1/C(=C/c2ccc(Cl)cc2)N=C(c2ccccc2)N1CCc1cccs1`: the GI50 in assay [1] was 30.6 µM; in assay [2], 47.3 µM; in assay [3], 16.7 µM; in [4], 62.8 µM; in assay [5], 15.6 µM; in assay [11], 7.72 µM. Further, the values for the GI50 in assay [6], in [7] and in [9] were 23.3 µM, 22.9 µM and 42.7 µM, respectively. For the same molecule, the concentration for total growth inhibition (TGI) in [1] was greater than 100 µM; in assay [2], greater than 100 µM; in [3] it was greater than 100 µM; in assay [4], greater than 100 µM; in assay [5], 33.2 µM; in assay [11] it was greater than 100 µM. The TGI in [6], in [7] and in [9] was greater than 100 µM throughout.
Turning to `CC(C)(C)OC(=O)NCCCCC(NC(=O)OCC1c2ccccc2-c2ccccc21)C(=O)N1CCCC1C(=O)NCC(N)=O` (stereo not drawn) (Fmoc-Lys(Boc)-Pro-Gly-NH2; configuration not given here), the TGI in assay [1] is greater than 100 µM; in assay [2], greater than 100 µM; in assay [4] it was greater than 100 µM; in assay [5] it was greater than 100 µM; in assay [11], 44.6 µM; in assay [6], greater than 100 µM. Besides, the TGI in [7] is greater than 100 µM; in [8], greater than 100 µM; in [9] it was greater than 100 µM; in assay [10] it was 34.3 µM.
In the case of `CCOC(=O)C(C(=S)Nc1ccccc1)c1nn2c(=O)cc(C)nc2s1` (stereo unspecified), the TGI in [1] was greater than 100 µM; in assay [2] it was greater than 100 µM; in [4], 53.4 µM; in assay [5] it was 41.1 µM; in assay [11], greater than 100 µM; in assay [6], greater than 100 µM. Moreover, the total growth inhibition concentration (TGI) was 49 µM in assay [7], 57.1 µM in assay [8], greater than 100 µM in assay [9] and greater than 100 µM in [10].
Consider `CCN1CCN(c2nc3ccc([N+](=O)[O-])cc3nc2C(=O)c2ccccc2)CC1`, for which the TGI in assay [1] was 41.7 µM; in [2], 35.6 µM; in [3] it was 73.2 µM; in [6], 32.8 µM; in assay [7], greater than 100 µM; in assay [8], 25.7 µM. In addition, the figures for the TGI in assay [9] and in assay [10] were 33.2 µM and 34.2 µM, respectively.
Consider `CCOC(=O)C(Cl)(NC(=O)c1c(F)c(F)c(F)c(F)c1F)C(F)(F)F` (stereo unspecified), for which the TGI in assay [1], in [2], in [4], in assay [5], in assay [11] and in assay [6] was greater than 100 µM in each case. The TGI in assay [7], in assay [8], in [9] and in assay [10] was greater than 100 µM throughout.
For `O=C1/C(=C/c2cccc(Br)c2)CSC/C1=C\c1cccc(Br)c1`, the TGI in [1] is 11.2 µM; in [2], 6.74 µM; in assay [4] it was 7.12 µM; in assay [5], 3.59 µM; in [11], 13.1 µM; in assay [6], 3.79 µM. Further, the TGI in assay [7] was determined as 6.74 µM; in assay [8], 6.14 µM; in assay [9] it was 24.3 µM; in [10] it was 11.8 µM.
As to `C/C(=C/C(=O)Nn1c(Cc2ccccc2)n[nH]c1=O)C(=O)O`, the TGI in [1], in assay [2], in [4], in assay [5], in [11] and in assay [6] was greater than 100 µM each time. In addition, the TGI in assay [7], in assay [8], in assay [9] and in [10] was greater than 100 µM each time.
Take `c1ccc2c(c1)ncn2C1CCCCO1` (stereo unspecified): the TGI in [1], in assay [2], in assay [4], in assay [5], in assay [11] and in assay [6] was greater than 100 µM each time. Also, the TGI in assay [7], in assay [8], in assay [9] and in assay [10] was greater than 100 µM each time.

Values taken from PubChem BioAssay (NCI).
